According to patent US20230201213A1, “USE OF EZH2 INHIBITORS FOR TREATING CANCER” (Epizyme, Inc., priority 2020, published 2023):
Values joined by “and” are separate entries in the source; they are usually repeats but may differ in a detail not shown here. Equal entries are not always repeated.

Tests used:
Format in all cases: in vivo, human
intratumoral B cells = test: Multiplexed immunofluorescence (anti-CD20) of paired pre-/post-dose tumor biopsies, phase 2 mesothelioma study: intratumoral compartment
Description: (§1) In this example, subjects were enrolled in a phase 2, multicenter, open-label, 2-part, single-arm, 2-stage study to assess PK, safety and efficacy of continuous oral dosing with tazemetostat 800 mg, twice daily in adult subjects with relapsed or refractory malignant mesothelioma. Subjects continued on study treatment until disease progression, development of an unacceptable toxicity, withdrawal of consent, or termination of the study. Assessments of clinical response were performed about every 6 weeks while on study. Subjects discontinued study treatment at the time of disease progression, development of an unacceptable toxicity, withdrawal of consent, or termination of the study.
(§2) Tumor tissue biopsy samples were collected for pre-dose tumor sampling at screening and post-dose at or following the first or second tumor assessments (Cycle 3 or 5) according to local clinical site procedures, and tissue blocks processed for formalin fixation and paraffin embedding (FFPE). These FFPE samples were stored at ambient temperature. Pairs of pre- and post-treatment samples were available from 12 subjects. FFPE tissue blocks were available for 9 cases (18 tissue samples) and slides from 3 subjects were available.
(§3) Preparation of tumor tissue was performed as follows: tumor tissue sections of 4-5 micron thickness containing representative tumor cells as determined by a trained pathologist were serially-cut from the same block for two patient cases. Sections were mounted on Superfrost plus slides (Fisherbrand™) and air-dried overnight. Where possible, sections from pre- and post-treatment from the same patient case were mounted on the same slide to reduce reagent use and to diminish technical variability of multiplex, serial antibody staining between pre- and post-treatment samples. Pre- and post-treatment samples passed QC evaluation for 10 biopsy pairs, and these samples were advanced to multiplexed immunofluorescence (IF) staining.
(§4) IF staining of a panel of pairs of Cy3 and Cy5-labeled antibodies was performed. Initially an autofluorescence removal process was conducted. Subsequently, 8 rounds of antibody staining were done with deactivation of the fluorescent dyes via alkaline oxidation occurring prior to each subsequent round of antibody staining.
(§5) As many regions of interest (ROI) were selected for spectral analysis for each sample, and the number ranged from 5-39 across the collection of samples. Few of the ROI failed QC for each sample, typically no more than 1-2 in each sample. There resulting number of ROI successfully imaged and analyzed ranged from 4-39. In toto, 340 of 355 ROI passed QC assessment (95.8%).
(§6) B cell content based on the number of individual cells stained with anti-CD20 in intratumoral and stromal compartments was determined and B cell density was calculated on a mm^2 basis. Creation of intratumoral/stromal masks using PanCK and EMA staining allowed separation of intratumoral from stromal signals. The mean of B cell density from each ROI that passed QC was calculated for each pre- and post-treatment biopsy sample.

stromal B cells = test: Multiplexed immunofluorescence (anti-CD20) of paired pre-/post-dose tumor biopsies, phase 2 mesothelioma study: stromal compartment
Description: as §1, §2, §3, §4, §5, §6

tumor-associated B cells = test: RNA-SEQ gene signature analysis of pre-/post-tazemetostat mesothelioma tumor samples; details: post- vs pre-tazemetostat
Description: as §1, §2
The pre- and post-tazemetostat samples were also analyzed using RNA-SEQ to determine if the decrease in intratumoral B cells and stromal B cells could be observed genetically.

[1] = tested on: tumor-infiltrating B cells; test: Bulk RNA-sequencing of pre-/post-tazemetostat epithelioid sarcoma tumor samples; details: post- vs pre-tazemetostat
Description: as §1, with “open-label,” for “open-label, 2-part,”, “safety, tolerability” for “PK, safety”, “daily and 1600 mg once daily” for “daily”, “INI1-negative tumors” for “relapsed”, “relapsed/refractory synovial sarcoma. The patient cohorts in the study also included patients with epithelioid sarcoma.” for “refractory malignant mesothelioma.”, “8” for “6”
Tumor tissue biopsy samples from patients with epithelioid sarcoma were collected for pre-dose tumor sampling at screening and post-dose at or following the first or second tumor assessments (Cycle 3 or 5) according to local clinical site procedures, and tissue blocks processed for formalin fixation and paraffin embedding (FFPE), These FFPE samples were stored at ambient temperature. Pairs of pre- and post-treatment samples were available from 22 subjects.
Pre- and post-tazemetostat samples were analyzed using bulk RNA-sequencing to determine specific gene expression changes and also tumor-infiltrating B cell signatures. Several different B cell signatures and one Macrophage signature were analyzed including B cell memory_CIBERSORT, B cell memory_CIBERSORT-ABS, B cell memory_XCELL, B cell naïve_CIBERSORT, B cell naïve_CIBERSORT-ABS. B cell naïve_XCELL, B cell plasma_CIBERSORT, B cell plasma_CIBERSORT-ABS, B cell plasma_XCELL, B cell_EPIC, B cell_MCPCOUNTER, B cell_QUANTISEQ, B cell_TIMER, B cell_XCELL, Class-switched memory B cell_XCELL, and Macrophage_EPIC. […] Finally, two B cell-specific marker genes, CD19 and CD20, were also analyzed in pre- and post-tazemetostat administration samples.

[2] = 10 mesothelioma patients, post- vs pre-dose
[3] = mesothelioma, paired biopsies of 10 patients
[4] = one line per patient (Pt ID), post-dose biopsy (Cycle 3 or 5), tazemetostat 800 mg twice daily oral, relapsed or refractory malignant mesothelioma, CD20 staining, mean of ROI
[5] = one line per patient (Pt ID), post-dose vs pre-dose biopsy, 800 mg twice daily, mesothelioma, negative = increase

In the case of `CCN(c1cc(-c2ccc(CN3CCOCC3)cc2)cc(C(=O)NCc2c(C)cc(C)[nH]c2=O)c1C)C1CCOCC1` [tazemetostat], the “% decrease in intratumoral B cell density (mean of means)” value (intratumoral B cells; [2]) is reported as 77%, the “median % decrease in intratumoral B cell density” value (intratumoral B cells; [2]) is reported as 100% and the “B cell post-tazemetostat intratumoral, mean of means” value (intratumoral B cells; mean over 10 patients, post-dose, pre-dose mean of means 35) is reported as 8 cell/mm^2. The “cases in which number and density of intratumoral B cells decreased to zero” value (intratumoral B cells; mesothelioma, 10 patients) was 5 cases, the “patients with a decrease of intratumoral B cells” value (intratumoral B cells; [3]) was 8/10 and the “B cell post-tazemetostat intratumoral Mean (cell/mm^2)” value (intratumoral B cells; [4]) was 0 cell/mm^2 (5×) and 3 cell/mm^2 and 43 cell/mm^2 and 11 cell/mm^2 and 22 cell/mm^2 and 2 cell/mm^2. The “% decrease B cell per sqmm in post-dose samples (intratumoral)” value (intratumoral B cells; [5]) was 100% (5×) and 95% and −529% and 25% and 90%, the “increase in B cell content in one sample (intratumoral)” value (intratumoral B cells; one sample that biased the mean decrease) was over 500% and the “% decrease in stromal B cell density (mean of means)” value (stromal B cells; [2]) was 90%. For the same molecule, the “median % decrease in stromal B cell density” value (stromal B cells; [2]) was 99%, the “B cell post-tazemetostat stromal, mean of means” value (stromal B cells; mean over 10 patients, post-dose, pre-dose mean of means 184) was 18 cell/mm^2 and the “cases in which number and density of stromal B cells decreased to zero” value (stromal B cells; mesothelioma, 10 patients) was 5 cases. The “patients with a decrease of stromal B cells” value (stromal B cells; [3]) was 9/10, the “B cell post-tazemetostat stromal Mean (cell/mm^2)” value (stromal B cells; [4]) was 0 cell/mm^2 (5×) and 1 cell/mm^2 and 3 cell/mm^2 and 101 cell/mm^2 and 72 cell/mm^2 and 6 cell/mm^2 and the “% decrease B cell per mm^2 in post-dose samples (stromal)” value (stromal B cells; [5]) was 100% (4×) and 99% (3×) and 90% and −418% and 29%. For the same molecule, the “macrophage gene signature (Marcophage_EPIC)” value (tumor-associated B cells) was “showed no change”, the “relative expression level of six B cell gene signatures (B cell memory_XCELL, B cell_MCPCOUNTER, B cell naïve_CIBERSORT, B cell_QUANTISEQ, B cell naïve_CIBERSORT-ABS, B cell_XCELL)” value (tumor-associated B cells; FIG. 6) was “showed a decrease in relative expression level” and the “relative expression levels of several B cell signatures” value ([1]; FIG. 7A and 7B) was “showed decreases in relative expression levels”. The “level of CD19 (B cell-specific marker gene)” value ([1]; FIG. 8) was “decreased” and the “level of CD20 (B cell-specific marker gene)” value ([1]; FIG. 8) was “decreased”.
